These are literature values, as cited in patent US11452768B2, “Combination therapy with neoantigen vaccine” (The Broad Institute Inc., priority 2013, dated 2022).

In one data set the test system is advanced melanoma. Particulars: nivolumab and ipilimumab combined, intravenous.
For data set [1], the system named is gene expression in whole blood. To be noted: one single s.c. administration, 8 volunteers vs 4 placebo.
Another data set has as its system ovarian carcinoma. Particulars: in combination with NY-ESO-1 peptide vaccine and Montanide.
The test system of data set [2] is advanced hormone refractory prostate cancer. Particulars: personalized vaccination combined with a low dose of estramustine.

With “ipilimumab: monoclonal antibody that binds and blocks CTLA-4”, the “Maximum doses associated with an acceptable level of adverse events” value in the data set on advanced melanoma is on record as 3 mg per kilogram.

For the compound “Polyinosinic-Polycytidylic Acid-poly-L-lysine Carboxymethylcellulose [poly-ICLC]”, the “Fever (common adverse event, primary dose-limiting factor)” value (high doses ≥6 mg/m2) was “above 40 °C”. Besides, the “Tolerability across all studies and spectrum of diseases” value (low dose (1-2 mg total dose)) was “well-tolerated”. Moreover, the “Differentially expressed genes versus placebo” value in data set [1] is given as “up to 212 genes”. Also, in the data set on ovarian carcinoma, the “Patients showing induction of CD4+ and CD8+ T cell and antibody responses to the peptide” value is on record as > 90%.

For “nivolumab: fully human IgG4 blocking monoclonal antibody against PD-1”, the “Maximum doses associated with an acceptable level of adverse events” value in the data set on advanced melanoma is on record as 1 mg per kilogram. Besides, the Objective responses with tumor types (across tumor types) is reported as 16-31%. For the same compound, in the data set on tumor types (in vivo), the “Durability of most responses” value was > 1 year and the Safety result is on record as “safe”.

With `C[C@]12CC[C@@H]3c4ccc(OC(=O)N(CCCl)CCCl)cc4CC[C@H]3[C@@H]1CC[C@@H]2O` [estramustine], the “Patients with a ≥50% decrease in serum prostate specific antigen (PSA)” value in data set [2] was 54%.
